Measured values from ChEMBL document CHEMBL1157308, “Daphniyunnines A-E, alkaloids from Daphniphyllum yunnanense” (J Nat Prod, 2006).

Experiments:
P388 = test: Cytotoxicity against mouse P388 cells; format: functional, cell-based
A549 = test: Cytotoxicity against human A549 cells; format: functional, cell-based

C[C@@H]1CN2C[C@H]3CCC4=C5[C@@](O)(CC[C@@]56C(=O)[C@@H]1C[C@@H]2[C@@]36C)CC4=O [DAPHNIYUNNINE D]
IC50 (P388): 3000 nM | IC50 (A549): 600 nM
